This is an account of results in PMC4520450, “Procyanidins Negatively Affect the Activity of the Phosphatases of Regenerating Liver” (PLoS ONE, 2015).

What is called IC50 is the midpoint of a concentration-inhibition curve.

One experiment concerns the target protein phosphatase-1. The arrangement: method as in PMID 22260360. As to conditions: cited from earlier work.
In another experiment the target is T1, PRL-3 (Homo sapiens, UniProt O75365).
T1 construct: His-TEV (cleaved yes); made in house
T1 sequence (O75365 whole entry): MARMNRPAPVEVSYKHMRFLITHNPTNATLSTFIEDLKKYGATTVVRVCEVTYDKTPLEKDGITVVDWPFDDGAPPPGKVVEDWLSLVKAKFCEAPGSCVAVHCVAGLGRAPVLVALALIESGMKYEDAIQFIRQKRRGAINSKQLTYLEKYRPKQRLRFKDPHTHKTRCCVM
Put plainly: DiFMUP phosphatase activity assay for PRLs. The format is biochemical. Particulars: for IC50: 50 nM PRL-3, 30 min preincubation, 25°C, 21 μM DiFMUP, mean ± SEM (n = 3–5), read-out: IC50 (Ki) PRL-3. On the procedure: Biochemical phosphatase activity measurements were carried out in the presence of different concentrations of various polyphenols, compounds 1–11 (Fig 1), using recombinant PRL-3 and 6,8-difluoro-4-methylumbelliferyl phosphate (DiFMUP) as a fluorogenic substrate (see the experimental procedures). We observed that the monomeric epicatechins EGC and EC inhibit PRL-3 only weakly, with a slightly better activity of EGC, which bears three hydroxyl groups at the B-ring. […] In general, as a basic structure activity-relationship the following trend was observed: a higher number of hydroxyl groups at the B-ring increased the activity slightly. […] The influence of the stereochemistry at C(2)–C(3) was studied by using GCG (the trans-epimer of EGCG).
(§1) Fig 2 Effect of polyphenolic compounds 8 (A), 9 (B), 10 (C) and 11 (D) on the phosphatase activity of PRL-1, PRL-2, PRL-3, PP1, and PP2A. Proteins were incubated for 30 min with 0–1000 μM of the corresponding procyandin 8–11. Phosphatase activity was measured in the presence of DiFMUP at 25°C using the concentration corresponding to the KM of each protein. The KM for PRLs was determined separately (PRL-3 = 21 μM, PRL-2 and PRL-1 = 24 μM). The KM for PP1 (91 μM) and for PP2A (100 μM) was taken from the literature. Protein concentrations are 50 nM for all PRLs and 2 mU for PP1 and 0.05 U for PP2A (see the Experimental Procedures). Phosphatase activity in the absence of inhibitors was set as 100%. Data represent means ± standard errors of the mean (n = 3–5).
(§2) DiFMUP assay for PRLs: In a final reaction volume of 100 μL the PRLs (50 nM final concentration) were incubated with decreasing concentrations of the inhibitory polyphenols for 30 minutes at 25°C. The buffer conditions were 108 mM TrisCl (pH 7.5), Triton 0.05% (v/v), DTT 27.0 mM, NaCl 811 mM. After the incubation time 20 μL DiFMUP (6,8-Difluoro-4-methylumbelliferyl phosphate) was added to reach a final concentration of 21 μM for PRL-3 and 24 μM for PRL-1 and PRL-2. On a Tecan safire2 (Tecan, Salzburg, Austria) plate reader dephosphorylation of the substrate to its fluorescent product was monitored by following the emission at 358 nm with excitation at 452 nm for 20 minutes. All measurements were done in triplicates, and the experiments were repeated at least three times. The slopes of the initial phases were obtained by linear regression of the data points. The normalized reaction rates were plotted versus the log of the inhibitor concentrations and the IC50 values were obtained by fitting the curves using the one site competition model of GraphPad Prism (GraphPad Software, Version 5). KM values were determined by measuring reaction kinetics of substrate dilution series. Initial velocities were plotted against DiFMUP concentration and the data was analyzed by Michaelis-Menten kinetics curve fitting of GraphPad Prism. A final DMSO content of 0.4% was maintained for the monomeric catechins. Due to the high water solubility of the procyanidins DMSO was not required and measurements were done in assay buffer only.

The subject of experiment [1] is PP2A. The arrangement: method as in PMID 22260360. Particulars: cited from earlier work.
The next experiment addresses T2, PP1 (Oryctolagus cuniculus, UniProt P62139).
T2 construct: purchased NewEngland Biolabs; host or cells: E. coli
In words: DiFMUP assay for PP1. It is filed as biochemical. On the procedure: as §1
(§3) BSA, which is usually supplemented to the assay buffer for stabilizing the PPs was however excluded, as BSA is known to form complexes with polyphenolic compounds [40–42] and thus would decrease the concentrations of the inhibitor in the assay. […] In contrast, the phosphatase activity of PP2A was suppressed to a much lesser extent with weak (for trimer 9 and hexamer 11) and strong statistical significance (dimer 8 and tetramer 10). Thus our results corroborate the data reported previously.
DiFMUP assay for PP1: In a final reaction volume of 100 μL PP1c (2 mU final concentration, according to manufacturer’s instructions) were incubated with decreasing concentrations of the inhibitory polyphenols for 30 minutes at 25°C. The assay buffer contained 25 mM imidazole (pH 7.4), 1 mM dithiothreitol (DTT), and 50 mM NaCl. Bovine serum albumin (BSA) was excluded due to possible binding of the polyphenolic compounds. After the incubation time 20 μL DiFMUP (6,8-Difluoro-4-methylumbelliferyl phosphate) was added to reach a final concentration of 100 μM. Monitoring of the fluorescent dephosphorylation product was monitored and data analyzed as described above.

The target in experiment [2] is T3, PRL-1 (Homo sapiens, UniProt Q93096).
T3 construct: His-TEV (cleaved yes); made in house
T3 sequence (Q93096 1-173): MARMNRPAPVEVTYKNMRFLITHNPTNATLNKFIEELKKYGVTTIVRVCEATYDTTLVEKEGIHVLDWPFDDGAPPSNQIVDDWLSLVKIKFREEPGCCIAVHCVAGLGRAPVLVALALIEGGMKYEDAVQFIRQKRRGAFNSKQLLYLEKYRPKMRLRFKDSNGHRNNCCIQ
In words: DiFMUP phosphatase activity assay for PRLs. Particulars: Michaelis-Menten and Lineweaver-Burk analysis, DiFMUP hydrolysis. The format is biochemical.

Experiment [3] deals with T4, PP2A (Homo sapiens, UniProt P67775).
T4 construct: purified from human red blood cells; purchased Merck Millipore; host or cells: human red blood cells
T4 sequence (P67775 whole entry): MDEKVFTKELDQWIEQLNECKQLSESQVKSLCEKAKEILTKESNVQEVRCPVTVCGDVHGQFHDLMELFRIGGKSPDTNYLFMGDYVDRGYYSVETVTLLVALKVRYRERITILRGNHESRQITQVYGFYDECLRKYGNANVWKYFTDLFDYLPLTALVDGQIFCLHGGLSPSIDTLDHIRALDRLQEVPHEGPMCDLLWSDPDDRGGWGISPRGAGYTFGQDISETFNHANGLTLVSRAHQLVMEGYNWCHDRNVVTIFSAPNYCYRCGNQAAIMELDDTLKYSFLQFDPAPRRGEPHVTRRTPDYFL
T4 sequence (P30153 2-589 partner limits assumed): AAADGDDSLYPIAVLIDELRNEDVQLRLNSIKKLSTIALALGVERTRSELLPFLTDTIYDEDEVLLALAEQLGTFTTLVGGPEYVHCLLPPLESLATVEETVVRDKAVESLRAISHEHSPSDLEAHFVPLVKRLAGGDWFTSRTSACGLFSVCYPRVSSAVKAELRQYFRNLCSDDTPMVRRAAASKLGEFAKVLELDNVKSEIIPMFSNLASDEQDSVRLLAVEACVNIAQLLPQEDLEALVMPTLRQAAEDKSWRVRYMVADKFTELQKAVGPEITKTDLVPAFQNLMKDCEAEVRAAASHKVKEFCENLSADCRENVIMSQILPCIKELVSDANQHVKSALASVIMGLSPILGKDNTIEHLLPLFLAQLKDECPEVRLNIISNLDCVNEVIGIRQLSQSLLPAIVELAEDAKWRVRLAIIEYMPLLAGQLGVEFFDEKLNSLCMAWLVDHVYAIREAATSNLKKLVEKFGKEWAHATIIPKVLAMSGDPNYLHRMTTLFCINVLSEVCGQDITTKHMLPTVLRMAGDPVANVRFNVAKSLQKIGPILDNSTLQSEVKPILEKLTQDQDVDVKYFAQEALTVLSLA
Put plainly: DiFMUP assay for PP2A. The format is biochemical. Particulars: 0.05 U PP2A, 30 min preincubation, 25°C, no BSA, mean ± SEM (n = 3–5), read-out: IC50 (Ki) PP2A. On the procedure: as §1, §3
Chemicals and vendors were as follows: Synthesis of Procyanidins (dimer to dodecamer) was done as previously reported. EGCG, EGC, ECG and EC were synthesized as previously reported or purchased from Sigma. (+)-Catechin and 3-(4,5-dimethylthiazol-2-yl)-2,5-diphenyltetrazolium bromide (MTT) were obtained from Sigma. 6,8-Difluoro-4-Methylumbelliferyl Phosphate (DiFMUP), propidium iodide and calcein AM were from lifescience technologies. Cell dissociation solution (10X) was purchased from amsbio. PP1c (recombinant from E. coli) was purchased from NewEngland Biolabs and PP2A (purified from human red blood cells, contains different subunits according to manufacturer) from Merck Millipore. Transwell plates (BRANDplates) and insert stripes for the migration assay were purchased from Brand GmbH. Black 96 well plates (96F Nunclon Delta) were purchased from Thermo Scientific. Transparent 96 well assay plates with UV transparent bottom were purchased from Corning Inc. Wound healing experiments were carried out with μ-dish 35 mm culture inserts, which were purchased from Ibidi.
DiFMUP assay for PP2A: In a final reaction volume of 100 μL PP2A (0.05 U final concentration, according to manufacturer’s instructions) were incubated with decreasing concentrations of the inhibitory polyphenols for 30 minutes at 25°C. The assay buffer contained 50 mM TrisCl (pH 7.5), 250 mM NaCl, 0.1 mM EDTA, 1 mM MnCl2, and 2 mM dithiothreitol (DTT). […] Monitoring of the fluorescent dephosphorylation product was monitored and data analyzed as described above.

The next experiment deals with T5, PRL-2 (Homo sapiens, UniProt Q12974).
T5 construct: His-TEV (cleaved yes); made in house
T5 sequence (Q12974 1-167): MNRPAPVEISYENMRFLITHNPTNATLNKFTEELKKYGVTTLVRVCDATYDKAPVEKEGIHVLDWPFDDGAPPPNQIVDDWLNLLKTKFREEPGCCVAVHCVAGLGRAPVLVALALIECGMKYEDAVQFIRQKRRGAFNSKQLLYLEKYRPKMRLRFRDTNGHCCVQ
In words: DiFMUP phosphatase activity assay for PRLs. The format is biochemical. Particulars: 50 nM PRL-2, 30 min preincubation, 25°C, 24 μM DiFMUP; mean ± SEM (n = 3–5); read-out: IC50 (Ki) PRL-2. On the procedure: as §1, §2

The target of experiment [4] is T3, PRL-1. In words: DiFMUP phosphatase activity assay for PRLs. As to conditions: 50 nM PRL-1, 30 min preincubation, 25°C, 24 μM DiFMUP; mean ± SEM (n = 3–5); read-out: IC50 (Ki) PRL-1. The format is biochemical. On the procedure: as §1, §2
Setting [5] is: Michaelis-Menten and Lineweaver-Burk analysis, DiFMUP hydrolysis.

SMILES strings stand for the structures.

T2 sequence (P62139 whole entry): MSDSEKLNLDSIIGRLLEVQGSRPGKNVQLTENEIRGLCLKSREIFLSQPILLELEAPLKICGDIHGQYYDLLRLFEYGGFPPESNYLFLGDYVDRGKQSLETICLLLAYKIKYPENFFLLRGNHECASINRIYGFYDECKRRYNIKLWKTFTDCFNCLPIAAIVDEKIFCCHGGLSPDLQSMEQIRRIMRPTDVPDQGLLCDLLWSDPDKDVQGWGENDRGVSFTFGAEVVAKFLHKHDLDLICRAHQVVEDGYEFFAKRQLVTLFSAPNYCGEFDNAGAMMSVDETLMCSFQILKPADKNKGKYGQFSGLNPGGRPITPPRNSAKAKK

`O=C(O[C@@H]1Cc2c(O)cc(O)cc2O[C@@H]1c1cc(O)c(O)c(O)c1)c1cc(O)c(O)c(O)c1` [EGCG (4)]: the IC50 is 1.35 µM on protein phosphatase-1 and 121 ± 5.7 µM at PRL-3. Further, the “increase in PRL-3 inhibition of 3-gallate ester compared to non-gallate (2 vs 1, 4 vs 3)” value on PRL-3 is on record as “about two-fold increase”. Further, the “activity toward PP2A relative to PP1” value in the experiment with PP2A [1] is “ten-fold lower activity”.

As to `Oc1cc(O)c2c(c1)O[C@H](c1ccc(O)c(O)c1)[C@@H](O)[C@@H]2c1c(O)cc(O)c2c1O[C@H](c1ccc(O)c(O)c1)[C@@H](O)[C@@H]2c1c(O)cc(O)c2c1O[C@H](c1ccc(O)c(O)c1)[C@@H](O)[C@@H]2c1c(O)cc(O)c2c1O[C@H](c1ccc(O)c(O)c1)[C@@H](O)C2` [Tetramer (10)], the IC50 on PRL-3 was 16.3 ± 2.3 µM; on PP1 (2 mU PP1c, 30 min preincubation, 25°C, DiFMUP, no BSA, mean ± SEM (n = 3–5), read-out: IC50 (Ki) PP1), 13.8 ± 2.9 µM; at PP2A [3], 77.9 ± 10.7 µM; on PRL-2, 13.4 ± 2.5 µM; on PRL-1 [4] it was 2.2 ± 1.1 µM. For the same compound, the “type of inhibition, PRL-3” value at PRL-3 (setting [5]) was “noncompetitive”. For the same compound, the “type of inhibition, PP1” value on PP1 (setting [5]) is on record as “noncompetitive”. Further, at PRL-1 [2], the “type of inhibition, PRL-1” value is given as “noncompetitive”.
